In PubChem BioAssay (NCI) one finds TGI data, which are given here for 27 molecules.

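Tested at 5 concentrations; 48 h exposure; 96-well plates; endpoints linearly interpolated, else capped at highest concentration. TGI is the concentration that stops growth completely.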

Test in all cases: inhibition of tumour cell growth, NCI panel, 48 h
The test system of assay [1] is A549 NSCLC.
The subject of assay [2] is HS 578T breast.
The subject of assay [3] is HT29 colon.
Assay [4] deals with OVCAR-4 ovarian.
In assay [5] the test system is SF-268 CNS.
The test system of assay [6] is SK-OV-3 ovarian.
The test system of assay [7] is SN12C renal.
The subject of assay [8] is TK-10 renal.
The subject of assay [9] is UACC-257 melanoma.
The subject of assay [10] is UACC-62 melanoma.

As to `CCCC(CCN)(CCN)[N+](=O)[O-]`, the TGI in [1], in assay [2], in [3], in [4], in [5] and in assay [6] was above 100 µM in each case. In addition, the TGI in assay [7], in assay [8], in assay [9] and in assay [10] was above 100 µM in each case.
For the molecule `COc1cc2nc(-c3cccs3)[nH]c(=O)c2cc1OC`, the TGI in assay [1], in assay [2], in assay [3], in assay [4], in assay [5] and in assay [6] was above 100 µM in each case. Also, the TGI in assay [7], in assay [8], in assay [9] and in assay [10] was above 100 µM in each case.
`CCOC(=O)Oc1ccc2c(c1)c(=O)c1c(NCCN(CC)CC)ccc3nnn2c31`: the TGI turned out to be 12.4 µM in assay [1]; 22.9 µM in assay [2]; 11.7 µM in [3]; 11.9 µM in assay [4]; 17.1 µM in [5]; 22.6 µM in [6]. Moreover, the TGI is 15.1 µM in [7], 16.2 µM in [8], 21.1 µM in assay [9] and 24.3 µM in [10].
As for `COc1ccc2oc(=O)c(-c3csc(C)n3)cc2c1`, the TGI was above 100 µM in assay [1]; 79.3 µM in assay [2]; above 100 µM in assay [3]; above 100 µM in assay [4]; 50.3 µM in assay [5]; 87.3 µM in [6]. The TGI was above 100 µM in assay [7], 64.7 µM in assay [8], above 100 µM in assay [9] and 73.1 µM in [10].
With `C[Si](C)(C)C1=C([Si](C)(C)C)C(Cl)(Cl)C1=O`, the TGI in assay [1] was 49.7 µM; in assay [2] it was 55.7 µM; in assay [3], 13.7 µM; in assay [4], 12.5 µM; in assay [5] it was 21.1 µM; in assay [6], 49.3 µM. Further, the TGI in assay [7] stood at 15.8 µM; in assay [8] it was 5.27 µM; in assay [9], 6.95 µM; in assay [10] it was 7.69 µM.
As to `CCN(CC)c1ccc(/C=C/C=C2C(=O)NC(=S)NC2=O)cc1`, the TGI is above 100 µM in [1]; above 53.7 µM in [2]; above 100 µM in [3]; above 100 µM in [4]; above 100 µM in [5]; above 100 µM in assay [6]. In addition, the TGI in assay [7], in assay [8], in [9] and in [10] was above 100 µM each time.
With `c1cnc(N2CCN(Cc3c[nH]c4ccccc34)CC2)nc1`, the TGI in assay [1], in assay [2], in assay [3], in [4], in assay [5] and in [6] was above 100 µM throughout. Besides, the TGI in assay [7], in assay [8], in [9] and in assay [10] was above 100 µM in each case.
On to `COc1cc(N(Cc2ccc3oc(=O)c(-c4ccccc4)nc3c2)Cc2ccc3oc(=O)c(-c4ccccc4)nc3c2)cc(OC)c1OC`, for which the TGI in [1], in assay [2], in assay [3], in [4], in assay [5] and in assay [6] was above 10 µM throughout. For the same molecule, the TGI in [7], in [8], in assay [9] and in [10] was above 10 µM in each case.
Consider `C[C@H](C/C=C/C(C)(C)O)[C@H]1CC[C@@]2(C)[C@@H]3CC[C@H]4C(C)(C)[C@@H](O)CC[C@@]45C[C@@]35CC[C@]12C`, for which the TGI in [1] is 31 µM; in [2] it was 27.8 µM; in assay [3], above 100 µM; in [4] it was 43.6 µM; in [5] it was 19.6 µM; in assay [6], above 100 µM. The TGI turned out to be 27.9 µM in [7], 27.1 µM in assay [8], 33.2 µM in [9] and 56 µM in [10].
In the case of `CCOc1cc(NC(C)=O)ccc1C(=O)NN1C(=O)CSC1c1ccccc1` (stereo not given), the TGI in [1], in assay [2], in [3], in assay [4], in assay [5] and in assay [6] was above 100 µM each time. The TGI in [7], in [8], in assay [9] and in assay [10] was above 100 µM in each case.
Regarding `CCOC(=O)C1=COC(C)(CCc2ccccc2)CC1=O` (stereo not given), the TGI in assay [1], in [2], in assay [3], in assay [4], in assay [5] and in assay [6] was above 100 µM each time. In addition, the TGI in assay [7], in [8], in assay [9] and in assay [10] was above 100 µM in each case.
Take `Fc1cccc(F)c1C1SCc2nc3ccc(Cl)cc3n21` (stereo not given): the TGI in assay [1], in assay [2], in assay [3], in [4], in assay [5] and in assay [6] was above 100 µM each time. The TGI in assay [7], in assay [8], in [9] and in assay [10] was above 100 µM throughout.
As for `Cc1ccc2c(c1)C(=O)C(C1OC(=O)c3ccccc31)C2` (stereo not given), the TGI in assay [1], in [2], in assay [3], in assay [4], in assay [5] and in assay [6] was above 100 µM in each case. Also, the TGI in [7], in assay [8], in [9] and in [10] was above 100 µM each time.
Turning to `Cn1c(N/N=C/c2ccccc2)nc(-c2ccc([N+](=O)[O-])cc2)c(C#N)c1=O`, the TGI in [1], in assay [2], in assay [3], in [4], in assay [5] and in assay [6] was above 100 µM throughout. Also, the TGI in assay [7] was above 100 µM; in [8] it was above 100 µM; in assay [9], above 100 µM; in assay [10] it was 97.5 µM.
With `COC(=O)c1ccc(Nc2nc3nc[nH]c3c(=O)[nH]2)cc1`, the TGI in assay [1], in assay [2], in assay [3], in [4], in [5] and in assay [6] was above 100 µM throughout. The TGI in [7], in assay [8], in assay [9] and in assay [10] was above 100 µM in each case.
With `O=C1Nc2ccccc2/C1=c1\[nH]c(=O)/c(=C\c2ccc(OCc3ccccc3)cn2)[nH]c1=O`, the TGI in assay [1] is above 100 µM; in [2], 70.1 µM; in assay [3] it was above 100 µM; in assay [4], above 100 µM; in assay [5], above 100 µM; in assay [6], above 100 µM. The TGI in [7] was above 100 µM; in assay [8] it was 50.1 µM; in assay [9], above 100 µM; in assay [10], above 100 µM.
Take `CSc1c(C(=O)Nc2ccc(Cl)cc2)c(N)n(N)c(=O)c1C#N`: the TGI in assay [1], in assay [2], in assay [3], in [4], in assay [5] and in [6] was above 100 µM throughout. Further, the TGI in [7], in [8], in assay [9] and in assay [10] was above 100 µM throughout.
Take `O=C1C(CN2CCOCC2)CCCC1CN1CCOCC1` (stereo not given): the TGI in [1] is 55.4 µM; in assay [2], 75.9 µM; in [3], 4.16 µM; in [4] it was 5.44 µM; in assay [5], 43.3 µM; in [6], 51.8 µM. Moreover, the TGI was 7.71 µM in assay [7], 8.72 µM in assay [8], 5.72 µM in [9] and 14.5 µM in [10].
On to `CC(C)(C)OC(=O)NCCCCC(NC(=O)c1ccccc1)C(N)=O` (stereo not given), for which the TGI in assay [1], in assay [2], in [3], in [4], in assay [5] and in [6] was above 100 µM throughout. In addition, the TGI in assay [7], in [8], in assay [9] and in assay [10] was above 100 µM throughout.
For the molecule `S=C(Nc1ccc2cn[nH]c2c1)Nc1ccc2cn[nH]c2c1`, the TGI in assay [1], in [2], in assay [3], in assay [4], in [5] and in assay [6] was above 100 µM in each case. Further, the TGI in [7], in [8], in assay [9] and in assay [10] was above 100 µM each time.
With `COc1cc(C2c3cc4c(cc3OC(NCCO)C2C)OCO4)cc(OC)c1OC` (stereo not given), the TGI in assay [1] was above 100 µM; in assay [2], above 100 µM; in assay [3] it was 21.4 µM; in assay [4] it was above 100 µM; in assay [5], above 84.9 µM; in assay [6] it was above 100 µM. Also, the TGI is above 100 µM in assay [7], above 96.3 µM in assay [8], above 100 µM in assay [9] and above 100 µM in assay [10].
As for `COc1ccc(/C=N/n2cnc3[nH]c(C)c(Cc4ccccc4)c3c2=N)cc1`, the TGI in [1], in [2], in [3], in [4], in assay [5] and in assay [6] was above 100 µM each time. Further, the TGI in [7], in [8], in assay [9] and in assay [10] was above 100 µM throughout.
Take `O=[N+]([O-])c1ccc(O)c(/C=N/NC(=S)N2CCCCC2)c1`: the TGI in assay [1] was above 100 µM; in assay [2], above 60 µM; in assay [3], 15 µM; in assay [4], 50.7 µM; in assay [5] it was 24.6 µM; in assay [6], above 56.6 µM. Also, the TGI in [7] was above 41.9 µM; in [8], 44 µM; in assay [9], 14.1 µM; in assay [10] it was above 30.5 µM.
`COc1ccccc1C[C@@H]1OC2(C=CC(=O)C=C2)O[C@H]1Cc1ccccc1OC`: the TGI is above 50 µM in assay [1]; 29.3 µM in assay [2]; 16.7 µM in assay [3]; 19.9 µM in assay [4]; 16.9 µM in assay [5]; 24.5 µM in assay [6]. Further, the TGI in assay [7] is 23.4 µM; in [8], 27.4 µM; in assay [9] it was 16.1 µM; in assay [10] it was 23.2 µM.
With `C[N+]1(CCN[N+]2(C)CCCCC2)CCc2ccccc2C1` (stereo not given), the TGI in assay [1], in assay [2], in assay [3], in [4], in [5] and in assay [6] was above 100 µM each time. The TGI in assay [7], in assay [8], in assay [9] and in [10] was above 100 µM in each case.
As to `COc1cc(C2c3cc4c(cc3OC(N3CCNCC3)C2C)OCO4)cc(OC)c1OC` (stereo not given), the TGI in assay [1] was above 53.9 µM; in assay [2], 3.35 µM; in assay [3], 7.54 µM; in [4] it was 21.6 µM; in assay [5], above 44.2 µM; in assay [6], above 23.4 µM. Also, the TGI was above 53.2 µM in [7], above 100 µM in assay [8], above 47.9 µM in assay [9] and 14.9 µM in assay [10].
As to `CC1CC(=O)N(N(C)C)C(C#N)(C#N)C1(C#N)C#N` (stereo not given), the TGI is above 74.2 µM in [1]; 59.7 µM in assay [2]; 38 µM in [3]; 33.4 µM in assay [4]; above 58.9 µM in [5]; above 64.9 µM in assay [6]. Besides, the TGI in [7] came to 37 µM; in assay [8], 30.3 µM; in assay [9] it was 29.8 µM; in [10] it was 39.3 µM.
